According to patent EP4678638A1, “NEW E3 UBIQUITIN LIGASE LIGAND, PROTEIN DEGRADATION AGENT AND USE THEREOF” (priority 2023, dated 2024):

What was measured:
Assay type in all cases: cell-based
Details in all cases: Table D16
[1] = target: T1, IKZF1 (Homo sapiens, UniProt Q13422+Q96SW2); assay: Western blot degradation of IKZF1 (hPBMC)
T1 construct: evaluate the effects of the compounds of the present disclosure on the expression of target proteins in cells; endogenous in cells; host or cells: hPBMC
T1 sequence (Q13422 whole entry): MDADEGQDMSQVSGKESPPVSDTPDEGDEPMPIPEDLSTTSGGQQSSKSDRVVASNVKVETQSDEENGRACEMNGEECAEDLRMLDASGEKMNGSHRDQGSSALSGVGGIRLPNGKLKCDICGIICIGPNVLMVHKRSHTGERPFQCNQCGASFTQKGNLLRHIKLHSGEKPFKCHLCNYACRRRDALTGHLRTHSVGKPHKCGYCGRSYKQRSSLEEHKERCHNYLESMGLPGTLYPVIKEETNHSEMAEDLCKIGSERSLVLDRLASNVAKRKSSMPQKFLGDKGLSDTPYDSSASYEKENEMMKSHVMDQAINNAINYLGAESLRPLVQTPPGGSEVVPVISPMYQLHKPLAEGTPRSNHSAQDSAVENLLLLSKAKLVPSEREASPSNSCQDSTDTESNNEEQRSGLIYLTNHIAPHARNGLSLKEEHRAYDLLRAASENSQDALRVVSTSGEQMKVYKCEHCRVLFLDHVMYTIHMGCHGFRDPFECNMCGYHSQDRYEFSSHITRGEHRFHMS
T1 sequence (Q96SW2 whole entry): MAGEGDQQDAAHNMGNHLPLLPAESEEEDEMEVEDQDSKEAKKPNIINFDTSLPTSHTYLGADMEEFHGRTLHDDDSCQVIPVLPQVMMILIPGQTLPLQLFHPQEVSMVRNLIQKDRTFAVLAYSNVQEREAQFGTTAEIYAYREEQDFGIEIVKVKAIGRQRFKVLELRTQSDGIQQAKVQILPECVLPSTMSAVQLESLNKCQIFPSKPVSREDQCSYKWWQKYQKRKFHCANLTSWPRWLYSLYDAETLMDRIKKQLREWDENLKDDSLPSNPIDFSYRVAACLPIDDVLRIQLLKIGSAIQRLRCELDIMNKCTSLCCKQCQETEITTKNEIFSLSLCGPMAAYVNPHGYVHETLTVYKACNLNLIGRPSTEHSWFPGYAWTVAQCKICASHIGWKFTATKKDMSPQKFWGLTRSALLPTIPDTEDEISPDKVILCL
T1 sequence (Q16531 whole entry partner): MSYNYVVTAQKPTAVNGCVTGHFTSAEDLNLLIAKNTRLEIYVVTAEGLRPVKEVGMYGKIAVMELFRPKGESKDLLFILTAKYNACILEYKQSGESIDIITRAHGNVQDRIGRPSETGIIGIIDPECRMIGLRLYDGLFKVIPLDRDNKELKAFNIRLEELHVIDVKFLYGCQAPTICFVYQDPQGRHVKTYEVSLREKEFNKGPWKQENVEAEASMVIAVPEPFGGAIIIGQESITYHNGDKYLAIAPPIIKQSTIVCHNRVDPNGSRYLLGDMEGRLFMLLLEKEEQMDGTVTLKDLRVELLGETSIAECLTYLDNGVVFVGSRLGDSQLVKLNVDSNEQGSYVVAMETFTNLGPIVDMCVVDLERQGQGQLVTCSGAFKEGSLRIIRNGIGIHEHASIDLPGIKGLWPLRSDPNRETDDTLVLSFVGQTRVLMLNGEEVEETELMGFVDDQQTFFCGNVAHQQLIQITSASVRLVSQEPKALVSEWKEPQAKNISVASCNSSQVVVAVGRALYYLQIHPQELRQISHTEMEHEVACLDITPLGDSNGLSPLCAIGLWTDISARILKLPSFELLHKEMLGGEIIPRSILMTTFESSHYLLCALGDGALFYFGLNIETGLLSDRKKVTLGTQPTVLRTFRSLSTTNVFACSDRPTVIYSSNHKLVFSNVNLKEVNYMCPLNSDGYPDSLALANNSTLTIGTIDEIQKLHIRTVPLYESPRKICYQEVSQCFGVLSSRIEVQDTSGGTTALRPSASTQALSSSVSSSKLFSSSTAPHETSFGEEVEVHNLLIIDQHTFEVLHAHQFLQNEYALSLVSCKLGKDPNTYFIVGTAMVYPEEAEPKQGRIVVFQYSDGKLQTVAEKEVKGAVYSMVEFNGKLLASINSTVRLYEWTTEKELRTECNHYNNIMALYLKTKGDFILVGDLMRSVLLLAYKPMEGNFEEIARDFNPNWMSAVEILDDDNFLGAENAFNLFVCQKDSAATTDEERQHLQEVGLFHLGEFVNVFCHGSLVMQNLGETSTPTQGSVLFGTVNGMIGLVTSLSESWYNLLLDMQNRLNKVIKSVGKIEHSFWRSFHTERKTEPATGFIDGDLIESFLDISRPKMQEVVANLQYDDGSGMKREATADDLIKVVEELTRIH
Experimental: (§1) Conventional Western blot assay was performed to evaluate the effects of the compounds of the present disclosure on the expression of target proteins in cells.
(§2) (1) Cell Seeding and Protein Harvesting: The selected cells were processed according to the cell seeding procedure and protein harvesting procedure in Table III-2. Table III-2 Cell Seeding and Protein Harvesting Procedures
(§3) (2) To the collected supernatant, 5X SDS sample loading buffer was added, followed by denaturation at 95°C for 5 minutes. The denatured samples were then separated by SDS-PAGE electrophoresis on a polyacrylamide gel. Proteins were transferred to a nitrocellulose membrane (0.45 µm NC membrane), blocked with blocking buffer at room temperature for 1 hour, and subjected to antibody incubation and development procedures according to the antibody manufacturer's instructions (Cell Signaling Technology).
(§4) Half-Maximal Degradation Concentration value (the drug concentration required for degrading proteins by 50%, abbreviated as DC50) reads method: comparing the grayscale values of Western blot bands from drug-treated samples with those from blank DMSO-treated controls, and identifying the drug concentration range at which the grayscale value is half that of the DMSO-treated control bands.
(§5) DC50 values can be calculated using ImageJ software to measure grayscale values of Western blot bands from drug-treated samples. The concentration-response curve is fitted to estimate the drug concentration corresponding to half the grayscale value.
(§6) Target protein remaining (%) refers to the percentage of target protein remaining in hPBMC cells after treatment with protein degrader compounds.
(§7) Calculation method for target protein remaining (%): Use ImageJ software to measure grayscale values of Western blot bands from drug (protein degrader)-treated samples. The grayscale value of drug-treated bands is divided by that of internal control protein bands, and the resulting quotient is normalized to obtain the relative percentage of remaining target protein after protein degrader treatment.
(§8) Target protein degradation rate (%) = 100% - target protein remaining (%).

[2] = target: T2, WEE1 (Homo sapiens, UniProt P30291+Q96SW2); assay: Western blot degradation of WEE1 (hPBMC)
T2 construct: evaluate the effects of the compounds of the present disclosure on the expression of target proteins in cells; endogenous in cells; host or cells: hPBMC
T2 sequence (P30291 whole entry): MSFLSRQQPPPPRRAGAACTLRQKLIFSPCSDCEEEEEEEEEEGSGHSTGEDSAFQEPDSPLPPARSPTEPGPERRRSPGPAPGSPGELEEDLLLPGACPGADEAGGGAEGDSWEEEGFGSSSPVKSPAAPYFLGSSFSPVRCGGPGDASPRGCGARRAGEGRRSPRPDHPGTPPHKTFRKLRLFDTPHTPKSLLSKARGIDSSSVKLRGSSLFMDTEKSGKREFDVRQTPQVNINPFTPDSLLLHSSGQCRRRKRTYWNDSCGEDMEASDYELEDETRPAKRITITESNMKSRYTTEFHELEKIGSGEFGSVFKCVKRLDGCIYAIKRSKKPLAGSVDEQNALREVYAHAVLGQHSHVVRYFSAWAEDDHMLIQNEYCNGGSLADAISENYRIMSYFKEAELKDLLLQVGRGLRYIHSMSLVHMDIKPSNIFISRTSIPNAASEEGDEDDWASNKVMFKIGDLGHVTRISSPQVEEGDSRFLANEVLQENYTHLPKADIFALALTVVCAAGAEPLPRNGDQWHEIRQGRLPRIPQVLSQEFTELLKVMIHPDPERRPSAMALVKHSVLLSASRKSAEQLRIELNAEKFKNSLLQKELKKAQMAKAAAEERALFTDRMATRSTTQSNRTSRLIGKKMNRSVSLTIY
T2 sequence (Q96SW2 whole entry): as the sequence (Q96SW2 whole entry) above
T2 sequence (Q16531 whole entry partner): as the sequence (Q16531 whole entry partner) above
Experimental: as §1, §2, §3, §4, §5, §6, §7, §8

[3] = target: T3, IKZF3 (Homo sapiens, UniProt Q96SW2+Q9UKT9); assay: Western blot degradation of IKZF3 (hPBMC)
T3 construct: evaluate the effects of the compounds of the present disclosure on the expression of target proteins in cells; endogenous in cells; host or cells: hPBMC
T3 sequence (Q9UKT9 whole entry): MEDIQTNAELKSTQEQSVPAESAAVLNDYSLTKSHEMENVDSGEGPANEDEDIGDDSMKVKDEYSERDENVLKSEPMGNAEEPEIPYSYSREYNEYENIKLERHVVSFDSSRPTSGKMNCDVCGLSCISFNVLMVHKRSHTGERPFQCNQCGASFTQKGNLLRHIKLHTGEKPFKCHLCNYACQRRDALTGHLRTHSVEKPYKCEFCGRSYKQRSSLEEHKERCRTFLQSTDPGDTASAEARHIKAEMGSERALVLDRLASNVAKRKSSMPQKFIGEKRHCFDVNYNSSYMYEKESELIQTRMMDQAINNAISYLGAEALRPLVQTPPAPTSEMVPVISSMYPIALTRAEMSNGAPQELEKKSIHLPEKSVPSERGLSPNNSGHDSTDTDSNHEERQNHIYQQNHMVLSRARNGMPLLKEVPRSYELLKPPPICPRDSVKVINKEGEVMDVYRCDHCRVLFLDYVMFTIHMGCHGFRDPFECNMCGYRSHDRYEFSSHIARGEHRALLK
T3 sequence (Q96SW2 whole entry): as the sequence (Q96SW2 whole entry) above
T3 sequence (Q16531 whole entry partner): as the sequence (Q16531 whole entry partner) above
Experimental: as §1, §2, §3, §4, §5, §6, §7, §8

[4] = target: T4, GSPT1 (Homo sapiens, UniProt P15170+Q96SW2); assay: Western blot degradation of GSPT1 (hPBMC)
T4 construct: evaluate the effects of the compounds of the present disclosure on the expression of target proteins in cells; endogenous in cells; host or cells: hPBMC
Experimental: as §1, §2, §3, §4, §5, §6, §7, §8

[5] = target: T5, CK1a (Homo sapiens, UniProt P48729+Q96SW2); assay: Western blot degradation of CK1a (hPBMC)
T5 construct: evaluate the effects of the compounds of the present disclosure on the expression of target proteins in cells; endogenous in cells; host or cells: hPBMC
T5 sequence (P48729 whole entry): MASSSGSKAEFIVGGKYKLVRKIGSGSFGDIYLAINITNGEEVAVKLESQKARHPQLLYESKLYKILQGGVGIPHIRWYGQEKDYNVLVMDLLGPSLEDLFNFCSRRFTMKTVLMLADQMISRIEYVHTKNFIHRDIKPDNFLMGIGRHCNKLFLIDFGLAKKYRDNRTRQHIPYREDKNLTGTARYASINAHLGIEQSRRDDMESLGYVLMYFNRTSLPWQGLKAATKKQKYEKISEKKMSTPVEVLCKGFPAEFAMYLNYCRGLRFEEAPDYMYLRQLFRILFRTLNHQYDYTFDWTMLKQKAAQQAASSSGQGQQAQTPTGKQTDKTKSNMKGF
T5 sequence (Q96SW2 whole entry): as the sequence (Q96SW2 whole entry) above
T5 sequence (Q16531 whole entry partner): as the sequence (Q16531 whole entry partner) above
Experimental: as §1, §2, §3, §4, §5, §6, §7, §8

[6] = target: T6, IKZF2 (Homo sapiens, UniProt Q96SW2+Q9UKS7); assay: Western blot degradation of IKZF2 (hPBMC)
T6 construct: evaluate the effects of the compounds of the present disclosure on the expression of target proteins in cells; endogenous in cells; host or cells: hPBMC
T6 sequence (Q9UKS7 whole entry): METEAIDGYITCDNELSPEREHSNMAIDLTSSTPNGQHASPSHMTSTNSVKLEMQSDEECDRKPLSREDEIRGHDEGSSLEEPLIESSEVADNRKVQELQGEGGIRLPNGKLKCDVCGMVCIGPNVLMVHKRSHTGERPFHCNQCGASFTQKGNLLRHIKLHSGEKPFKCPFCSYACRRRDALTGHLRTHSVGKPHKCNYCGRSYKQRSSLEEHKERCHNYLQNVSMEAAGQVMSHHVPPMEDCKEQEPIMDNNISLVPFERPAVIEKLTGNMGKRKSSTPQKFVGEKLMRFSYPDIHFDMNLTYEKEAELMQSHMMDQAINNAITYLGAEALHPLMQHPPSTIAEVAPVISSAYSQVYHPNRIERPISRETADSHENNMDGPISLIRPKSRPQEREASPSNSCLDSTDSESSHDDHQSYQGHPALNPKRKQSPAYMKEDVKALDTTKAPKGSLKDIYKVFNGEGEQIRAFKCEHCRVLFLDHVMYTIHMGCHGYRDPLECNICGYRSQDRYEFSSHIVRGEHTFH
T6 sequence (Q96SW2 whole entry): as the sequence (Q96SW2 whole entry) above
T6 sequence (Q16531 whole entry partner): as the sequence (Q16531 whole entry partner) above
Experimental: as §1, §2, §3, §4, §5, §6, §7, §8

Row | SMILES | Degradation of substrate protein IKZF1 (substrate protein remaining %) [1] | Degradation of substrate protein WEE1 (substrate protein remaining %) [2] | Degradation of substrate protein IKZF3 (substrate protein remaining %) [3] | Degradation of substrate protein GSPT1 (substrate protein remaining %) [4] | Degradation of substrate protein CKla (substrate protein remaining %) [5] | Degradation of substrate protein IKZF2 (substrate protein remaining %) [6]
1 | O=Cc1ccncc1NC1CCC(=O)NC1=O (stereo not drawn) [GT-07804, 3-((2,6-Dioxopiperidin-3-yl)amino)isonicotinaldehyde] | B (B is defined as substrate protein remaining % > 80%) | B (B is defined as substrate protein remaining % > 80%) | A (A is defined as 0% ≤ substrate protein remaining % ≤ 80%) | B (B is defined as substrate protein remaining % > 80%) | B (B is defined as substrate protein remaining % > 80%) | A (A is defined as 0% ≤ substrate protein remaining % ≤ 80%)
2 | O=Cc1ccc(NC2CCC(=O)NC2=O)cn1 (stereo not drawn) [GT-07640, 5-((2,6-Dioxopiperidin-3-yl)amino)picolinaldehyde] | A (A is defined as 0% ≤ substrate protein remaining % ≤ 80%) | A (A is defined as 0% ≤ substrate protein remaining % ≤ 80%) | A (A is defined as 0% ≤ substrate protein remaining % ≤ 80%) | A (A is defined as 0% ≤ substrate protein remaining % ≤ 80%) | B (B is defined as substrate protein remaining % > 80%) | A (A is defined as 0% ≤ substrate protein remaining % ≤ 80%)
3 | O=C1CCC(c2ccc(CO)cn2)C(=O)N1 (stereo not drawn) [GT-07075, 3-(5-(Hydroxymethyl)pyridin-2-yl)piperidine-2,6-dione] | B (B is defined as substrate protein remaining % > 80%) | B (B is defined as substrate protein remaining % > 80%) | A (A is defined as 0% ≤ substrate protein remaining % ≤ 80%) | A (A is defined as 0% ≤ substrate protein remaining % ≤ 80%) | B (B is defined as substrate protein remaining % > 80%) | A (A is defined as 0% ≤ substrate protein remaining % ≤ 80%)
4 | O=C1CCN(c2cnc(F)c(CO)c2)C(=O)N1 [GT-07556, 1-(6-Fluoro-5-(hydroxymethyl)pyridin-3-yl)dihydropyrimidine-2,4(1H,3H)-dione] | A (A is defined as 0% ≤ substrate protein remaining % ≤ 80%) | A (A is defined as 0% ≤ substrate protein remaining % ≤ 80%) | A (A is defined as 0% ≤ substrate protein remaining % ≤ 80%) | B (B is defined as substrate protein remaining % > 80%) | A (A is defined as 0% ≤ substrate protein remaining % ≤ 80%) | B (B is defined as substrate protein remaining % > 80%)
5 | O=C1CCN(c2cnc(CO)cn2)C(=O)N1 [GT-07634, 1-(5-(Hydroxymethyl)pyrazin-2-yl)dihydropyrimidine-2,4(1H,3H)-dione] | A (A is defined as 0% ≤ substrate protein remaining % ≤ 80%) | A (A is defined as 0% ≤ substrate protein remaining % ≤ 80%) | A (A is defined as 0% ≤ substrate protein remaining % ≤ 80%) | B (B is defined as substrate protein remaining % > 80%) | A (A is defined as 0% ≤ substrate protein remaining % ≤ 80%) | A (A is defined as 0% ≤ substrate protein remaining % ≤ 80%)
6 | NCc1cc(N2CCC(=O)NC2=O)cnc1F [GT-07729, 1-(5-(Aminomethyl)-6-fluoropyridin-3-yl)dihydropyrimidine-2,4(1H,3H)-dione] | A (A is defined as 0% ≤ substrate protein remaining % ≤ 80%) | A (A is defined as 0% ≤ substrate protein remaining % ≤ 80%) | A (A is defined as 0% ≤ substrate protein remaining % ≤ 80%) | A (A is defined as 0% ≤ substrate protein remaining % ≤ 80%) | B (B is defined as substrate protein remaining % > 80%) | A (A is defined as 0% ≤ substrate protein remaining % ≤ 80%)
7 | O=C1CCC(Nc2ccc(CO)nn2)C(=O)N1 (stereo not drawn) [GT-07803, 3-((6-(Hydroxymethyl)pyridazin-3-yl)amino)piperidine-2,6-dione] | A (A is defined as 0% ≤ substrate protein remaining % ≤ 80%) | B (B is defined as substrate protein remaining % > 80%) | A (A is defined as 0% ≤ substrate protein remaining % ≤ 80%) | B (B is defined as substrate protein remaining % > 80%) | B (B is defined as substrate protein remaining % > 80%) | A (A is defined as 0% ≤ substrate protein remaining % ≤ 80%)
8 | NCc1ccc(N2CCC(=O)NC2=O)nc1 [GT-07012, 1-(5-(Aminomethyl)pyridin-2-yl)dihydropyrimidine-2,4(1H,3H)-dione] | B (B is defined as substrate protein remaining % > 80%) | A (A is defined as 0% ≤ substrate protein remaining % ≤ 80%) | A (A is defined as 0% ≤ substrate protein remaining % ≤ 80%) | A (A is defined as 0% ≤ substrate protein remaining % ≤ 80%) | B (B is defined as substrate protein remaining % > 80%) | B (B is defined as substrate protein remaining % > 80%)
9 | O=C1CCC(c2cnc(F)c(CO)c2)C(=O)N1 (stereo not drawn) [GT-07074, 3-(6-Fluoro-5-(hydroxymethyl)pyridin-3-yl)piperidine-2,6-dione] | B (B is defined as substrate protein remaining % > 80%) | B (B is defined as substrate protein remaining % > 80%) | A (A is defined as 0% ≤ substrate protein remaining % ≤ 80%) | A (A is defined as 0% ≤ substrate protein remaining % ≤ 80%) | B (B is defined as substrate protein remaining % > 80%) | A (A is defined as 0% ≤ substrate protein remaining % ≤ 80%)
10 | O=Cc1cncnc1NC1CCC(=O)NC1=O (stereo not drawn) [GT-07805, 4-((2,6-Dioxopiperidin-3-yl)amino)pyrimidine-5-carbaldehyde] | A (A is defined as 0% ≤ substrate protein remaining % ≤ 80%) | B (B is defined as substrate protein remaining % > 80%) | A (A is defined as 0% ≤ substrate protein remaining % ≤ 80%) | B (B is defined as substrate protein remaining % > 80%) | B (B is defined as substrate protein remaining % > 80%) | A (A is defined as 0% ≤ substrate protein remaining % ≤ 80%)
